Test results published in PubChem BioAssay AID1996.
≈ marks a conversion by molar mass, not a printed value.

settings: buffer; pH 7.4; 200.0 µM

SMILES	solubility kinetic
Cc1cc(=O)[nH]c(NCc2ccccc2)n1	30.6 µg/mL (≈ 142 µM)
CC(=O)c1ccc(NC(=O)C(C)O/N=C(\N)c2ccccc2)cc1 (stereo not given)	45.5 µg/mL (≈ 140 µM)
Cc1noc2ncnc(Oc3ccccc3Cl)c12	28 µg/mL (≈ 107 µM)
Cc1ccc(OCc2cc(C(=O)NC3CCOC3)no2)cc1C (stereo not given)	33.1 µg/mL (≈ 105 µM)
CC(SCc1ccccc1)C(=O)Nc1ccc(F)cc1 (stereo not given)	> 43.4 µg/mL
Cc1ccc(NCC(=O)N/N=C/c2ccncc2)cc1	> 40.2 µg/mL
CN(C(=O)CSc1nnnn1C)C1(C#N)CCCCC1	> 44.2 µg/mL
COc1ccc(CN2C(=O)c3cccc4cccc2c34)cc1F	9.8 µg/mL (≈ 31.9 µM)
Cn1c2c(c3cc([N+](=O)[O-])ccc31)CCCC2	< 0.2 µg/mL
Cc1ccc(C(=O)c2coc3ccc(O)c(CN(C)C)c23)cc1.Cl	48 µg/mL
Fc1ccc2nc(N3CCOCC3)sc2c1	> 35.7 µg/mL
COc1ccc(C(=O)NCC(=O)N2CCNC(=O)C2)cc1OC	> 48.2 µg/mL
O=C(CSc1nccc(-c2cccs2)n1)Nc1ccccc1	2.3 µg/mL (≈ 7.02 µM)
COc1cc(OC)cc(C(=O)NCC(=O)N2CCN(Cc3ccccc3)CC2)c1	> 59.6 µg/mL
O=[N+]([O-])c1cccc(CNC2CCCCCC2)c1	24.6 µg/mL (≈ 99.1 µM)
CCCOc1ccc(/C=C2/C(=O)ON=C2C)cc1OCC	36.8 µg/mL (≈ 127 µM)
O=C(NCc1ccccc1Cl)C1CCN(c2cnccn2)CC1	> 49.6 µg/mL
O=C(O)c1ccc(N=C2NC(=O)C(CO)(CO)S2)cc1	> 44.4 µg/mL
O=C(CC(=O)NCc1ccccc1)NCc1ccccc1	> 42.4 µg/mL
CSc1ncccc1C(=O)OCC(=O)NC1CCCc2ccccc21 (stereo not given)	5.5 µg/mL (≈ 15.4 µM)

SMILES	solubility kinetic
Cc1cc(/C(N)=N/OC(=O)c2ccccc2Cl)no1	> 42 µg/mL
COc1ccc(S(=O)(=O)NCC2CCCO2)cc1C(=O)O (stereo not given)	> 47.3 µg/mL
COc1ccc(S(=O)(=O)N2CCN(Cc3cccnc3)CC2)cc1	> 52.1 µg/mL
O=[N+]([O-])c1ccc(SCCc2ccccn2)cc1	30.6 µg/mL (≈ 118 µM)
COC(=O)[C@@H](NC(=O)N1CCC(Cc2ccccc2)CC1)C(C)C	> 49.9 µg/mL
CCOc1ccc(NC(=O)CCN2CCN(C)CC2)cc1	> 43.7 µg/mL
O=C(N/N=C\c1ccc(O)c([N+](=O)[O-])c1)C1COc2ccccc2O1 (stereo not given)	> 51.5 µg/mL
CCOc1ccc(C(C)NC(=O)C2CCCC2)cc1 (stereo not given)	> 39.2 µg/mL
O=C(O)c1ccc(S(=O)(=O)N2CCCC2)cc1	37.6 µg/mL (≈ 147 µM)
COn1c(-c2ccccc2)nc2ncccc21	> 33.8 µg/mL
O=C(O)/C(=C\c1ccco1)NC(=O)c1ccco1	> 37.1 µg/mL
C/C(=N\Nc1nc(C)cc(C)n1)c1ccc(C)o1	> 36.6 µg/mL
CCOC(=O)C1CCN(C(=O)/C(=C/c2ccccc2)NC(=O)c2ccccc2)CC1	> 61 µg/mL
CCc1cc(C(=O)OC)c(NC(=O)c2ccoc2C)s1	< 0.6 µg/mL
CC(CN1CCN(C)CC1)OC(=O)c1ccc(F)cc1.Cl (stereo not given)	> 47.5 µg/mL
Cc1ccc(CNC(=O)CSc2ccsc2[N+](=O)[O-])cc1	5.3 µg/mL (≈ 16.4 µM)
O=C(CNC(=O)c1ccccc1F)NCc1ccccn1	> 43.1 µg/mL
Cn1cc(CCCC(=O)NCc2ccc(F)cc2)c2ccccc21	22.7 µg/mL (≈ 70 µM)
COc1ccccc1N(CCC#N)C(=S)Nc1ccc(S(=O)(=O)N2CCOCC2)cc1	> 69.1 µg/mL
Cc1c(NC(=S)NC(=O)c2ccc(Cl)cc2)c(=O)n(-c2ccccc2)n1C	> 60.1 µg/mL

SMILES	solubility kinetic
Cc1cc(=O)oc2cc(OCC(=O)NC3CCCC3)ccc12	22.9 µg/mL (≈ 76 µM)
Cc1ccccc1NC(=O)CN1C(=O)CSc2ccccc21	3.6 µg/mL (≈ 11.5 µM)
CC(OC(=O)c1ccc2ccccc2n1)C(=O)c1ccccc1 (stereo not given)	> 45.8 µg/mL
CN(C)C(CNC(=O)c1ccco1)c1cccs1 (stereo not given)	> 39.7 µg/mL
CC(=O)Nc1ccc(S(=O)(=O)NCCCc2ccccc2)cc1	> 49.9 µg/mL
Fc1cccc(Nc2ncnc3sccc23)c1	5.7 µg/mL (≈ 23.2 µM)
CC(O)c1nc2cc([N+](=O)[O-])ccc2n1Cc1ccccc1 (stereo not given)	6.9 µg/mL (≈ 23.2 µM)
Cc1oc(-c2cc(F)cc(F)c2)nc1CN1CCSCC1	26.3 µg/mL (≈ 84.7 µM)
Cc1ccccc1-n1ccnc1SCC(=O)Nc1cccc(S(=O)(=O)NC2=NCCC2)c1	> 70.4 µg/mL
Cc1nc2ccc(C(=O)O)cc2c2c1CC(CN)O2 (stereo not given)	19.7 µg/mL (≈ 76.3 µM)
O=C(C#Cc1ccccc1)NCc1ccccc1F	8.1 µg/mL (≈ 32 µM)
O=C1N=C(N2CCOCC2)S/C1=C\c1ccncc1	> 41.3 µg/mL
CN(CC(=O)Nc1ccccc1F)Cc1cccs1	30.1 µg/mL (≈ 108 µM)
COc1ccc(CN2CCNCC2)cc1.Cl	> 36.4 µg/mL
CN1C[C@H](C(=O)N[C@]2(C)O[C@@]3(O)[C@@H]4CCCN4C(=O)[C@H](Cc4ccccc4)N3C2=O)CC2c3cccc4[nH]cc(c34)C[C@H]21.CS(=O)(=O)O (stereo not given in full)	62.9 µg/mL
O=C(Nc1ccc(-c2n[nH]c(=S)o2)cc1)c1ccccc1	> 44.6 µg/mL
C/C(=N\O)c1cc(Cl)cc(Cl)c1O	30.5 µg/mL (≈ 139 µM)
CCC(=O)Nc1ccc2c(c1)N(C(C)=O)c1ccccc1CC2	> 46.3 µg/mL
O=C1c2ccccc2C(=O)N1C1CCCCC1	1.3 µg/mL (≈ 5.67 µM)
OCCCNc1c2ccccc2nc2ccccc12	> 37.8 µg/mL
